This note sets out measurements from PubChem BioAssay (NCI).

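Tested at 5 concentrations; 48 h exposure; 96-well plates; endpoints linearly interpolated, else capped at highest concentration. TGI denotes the concentration required for complete inhibition of growth.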 Where only a bound is given, the exact number is not on record here.

What all share (experiment): DTP human tumour cell line panel, 48 h
For assay [1], the system named is K-562 leukemia.
In assay [2] the test system is SNB-75 CNS.
In assay [3] the test system is SF-295 CNS.
Assay [4] relates to OVCAR-8 ovarian.
Assay [5] has as its system NCI-H226 lung.
For assay [6], the system named is EKVX NSCLC.
Assay [7] concerns HL-60(TB) leukemia.
The subject of assay [8] is SNB-19 CNS.
The test system of assay [9] is HOP-92 NSCLC.
In assay [10] the test system is HCT-116 colon.
The subject of assay [11] is ACHN renal.
Assay [12] relates to MDA-N.
The subject of assay [13] is NCI/ADR-RES ovarian.
The test system of assay [14] is MDA-MB-435.
Assay [15] relates to HS 578T breast.

Take `Nc1c([N+](=O)[O-])nc(Cl)c2nncn12`: the TGI was over 100 µM in assay [1]; over 77.7 µM in [2]; over 100 µM in assay [3]; over 100 µM in assay [4]; over 100 µM in assay [5]; over 100 µM in assay [6]. In addition, the TGI in assay [7] is over 100 µM; in [8], over 100 µM; in [9], over 100 µM; in [10], over 63.9 µM; in assay [11] it was over 100 µM.

On to `NNC(=O)c1c(-c2cccnc2)cnc2ccccc12`, for which the TGI in [1], in assay [2], in assay [3], in assay [4], in assay [5] and in assay [6] was over 100 µM throughout. In addition, the TGI in assay [12], in [13], in assay [7], in [8], in assay [9] and in assay [10] was over 100 µM each time. In assay [11], this compound came in with a total growth inhibition concentration (TGI) of over 100 µM.

For `C/C(=C\CBr)CCC(Br)C(C)(C)Cl` (configuration not stated), the TGI in [1], in [2], in assay [3], in assay [4], in assay [5] and in assay [9] was over 100 µM in each case. Moreover, the TGI in [10] and in [11] was over 100 µM in each case.

As to `O=C(/C=C/c1ccc(Oc2cc(C(=O)/C=C/c3ccc(O)cc3)c(O)cc2O)cc1)c1ccc(O)cc1O`, the concentration for total growth inhibition (TGI) is 16.6 µM in [1]; 9.68 µM in assay [2]; 17.6 µM in assay [14]; over 100 µM in assay [15]; 18.5 µM in assay [3]; 6.09 µM in [4]. In addition, the TGI is 27.9 µM in assay [6]; 22.7 µM in [13]; over 100 µM in assay [7]; 30.9 µM in assay [8]; 55.3 µM in assay [9]; 4.57 µM in [10]. In assay [11], this compound returned a TGI of 22.2 µM.

Turning to `CCC1OC2C(CC=C(C)C)=C3OC(C)(O)C(C)(CC)C(OC(C)=O)C3=C3OC(=O)C=C1C32` (configuration not stated), the TGI in [1] is over 100 µM; in assay [2], 52.1 µM; in assay [14], 50.3 µM; in assay [15], over 100 µM; in assay [3], 42.2 µM; in assay [4] it was over 100 µM. Further, the TGI in assay [6] is over 100 µM; in assay [13] it was 83.2 µM; in assay [7], over 100 µM; in [8], 63.2 µM; in assay [9], over 100 µM; in assay [10] it was 70 µM. This compound yielded a TGI in assay [11] of over 100 µM.

Consider `O=C(/C=C/c1ccccc1)Oc1ccc(C(=O)/C=C/c2ccc(Cl)cc2)cc1`, for which the total growth inhibition concentration (TGI) in [1], in assay [2], in assay [14], in [3], in [4] and in assay [6] was over 100 µM in each case. Further, the TGI in assay [12], in [13], in [7], in [8], in [10] and in [11] was over 100 µM throughout.

On to `CC(C)=CCN1CC(C)C(=O)Nc2ccccc21` (configuration not stated), for which the TGI in assay [1], in assay [14], in assay [15], in assay [3], in assay [4] and in assay [5] was over 100 µM each time. The TGI in [6], in [12], in assay [7], in assay [8], in [9] and in assay [10] was over 100 µM each time. The TGI in assay [11] was over 100 µM.

Consider `CCOP1(=O)C=C(C)C(Cl)=C(C)C1` (configuration not stated), for which the TGI in [1] was 90.5 µM; in [2], 69.7 µM; in assay [3], over 100 µM; in [4], over 100 µM; in assay [5] it was 59.9 µM; in assay [6], over 100 µM. Further, the TGI was 53.9 µM in [7]; over 100 µM in [8]; 68.3 µM in assay [9]; 41.4 µM in [10]; 72.2 µM in assay [11].

Regarding `C/C=C/C#CC#C/C=C/C=C/C(O)CCO` (configuration not stated), the TGI in assay [1], in assay [2], in assay [3], in [4], in assay [5] and in assay [6] was over 23.1 µM throughout. For the same compound, the TGI in assay [7], in assay [8], in [9], in assay [10] and in assay [11] was over 23.1 µM in each case.

`O=c1[nH]c(=S)nc2nc3c4ccc[nH]c4c4ccccc4c3nc12`: the TGI in assay [2], in [14], in assay [15], in assay [3], in [4] and in [6] was over 100 µM in each case. In addition, the TGI in [12] is over 100 µM; in assay [7], 66.1 µM; in assay [8], over 100 µM; in [9] it was over 100 µM; in assay [10], over 100 µM; in [11], over 100 µM.

In the case of `CC1CN=C(N(Cc2ccccc2)C(=O)Nc2ccc(Cl)c(Cl)c2)S1` (configuration not stated), the TGI is over 100 µM in assay [1]; over 100 µM in [2]; over 100 µM in [15]; over 10 µM in [3]; over 100 µM in assay [4]; over 100 µM in [6]. Further, the TGI was over 100 µM in assay [12]; over 100 µM in assay [13]; over 10 µM in assay [7]; over 100 µM in assay [8]; 54.5 µM in assay [9]; over 100 µM in [10]. Moreover, the TGI in [11] worked out at 75 µM.

In the case of `CN(C)C(=NCc1ccccc1)NC#N`, the TGI in assay [3], in assay [4], in [6], in assay [8], in assay [9] and in assay [10] was over 100 µM each time. Also, in assay [11], the TGI was over 100 µM.

In general, TGI refers to the concentration at which net growth stops. A low value points to greater sensitivity of the cells.
